# Source: patent US11040033B2 (Gilead Sciences, Inc., priority 2017, dated 2021)
# Target: T1, IDO1 (Homo sapiens, UniProt P14902)
# T1 construct: HeLa cells were treated with a test compound in the presence of IFNγ, which induces IDO1 expression; endogenous in cells; host or cells: H1-HeLa cells (ATCC #CRL-1958), induced with IFNγ
# Test: Cell-based (HeLa) assay for measurement of IDO1 inhibition (kynurenine levels in supernatant after IFNγ induction)
# Conditions: H1-HeLa cells, IFNγ-induced IDO1, 48 hour incubation, kynurenine absorbance at 480 nm; geometric mean of a minimum of four determinations
# Procedure: To measure IDO1 inhibition in tissue culture, HeLa cells were treated with a test compound in the presence of IFNγ, which induces IDO1 expression. Following incubation, cell supernatants were assayed for kynurenine levels, an indicator of IDO1 activity.
# H1-HeLa cells (ATCC #CRL-1958) were seeded in 384-well plates (Greiner #82051-282) at a volume […] (Corning #15-018-CM) supplemented with 10% FBS (Corning #35-011-CV) and 1% P/S/G (Corning #30-009-CL) at a density of 1,250 cells/well and incubated overnight at 37° C., 5% CO2/100% humidity. The following day, the test compounds were added in DMSO (0.5% final) at various concentrations, and IDO1 was inducibly expressed by the addition of 50 uL/well of 50 ng/mL of INFγ(Peprotech #300-02) in cell plating media. As a positive control, 50 uL of the cell plating media without IFNγ was added to several wells. Following a 48 hour incubation, the plates were spun down at 1,200 RPM for 5 min at 10° C. 65 μL/well of the supernatant was then transferred to new 384-well plates (Thermo #262160) that contained 10 uL/well of 30% TCA (Sigma #T0699), and the plates were sealed and incubated at 60° C. for 30 min. The plates were then centrifuged for 15 min at 2,000 RPM at 10° C. 40 μL/well of the supernatant was transferred to new 384-well plates (Thermo #262160) and was reacted with 40 μL/well of 2% (w/v) p-dimethylaminobenzaldehyde (Sigma #156417) in glacial acetic acid (Sigma #A6283). The reaction was incubated at room temperature for 10 min and absorbance at 480 nm was read using a PerkinElmer Envision plate reader.
# Data in Table 1 were normalized based on positive (−IFNγ) and negative (+IFNγ) controls and EC50 values were calculated from the fit of the dose-response curves to a four-parameter equation. All EC50 values represent geometric mean values of a minimum of four determinations. These assays generally produced results within 2-fold of the reported mean.
# T1 sequence (P14902 whole entry): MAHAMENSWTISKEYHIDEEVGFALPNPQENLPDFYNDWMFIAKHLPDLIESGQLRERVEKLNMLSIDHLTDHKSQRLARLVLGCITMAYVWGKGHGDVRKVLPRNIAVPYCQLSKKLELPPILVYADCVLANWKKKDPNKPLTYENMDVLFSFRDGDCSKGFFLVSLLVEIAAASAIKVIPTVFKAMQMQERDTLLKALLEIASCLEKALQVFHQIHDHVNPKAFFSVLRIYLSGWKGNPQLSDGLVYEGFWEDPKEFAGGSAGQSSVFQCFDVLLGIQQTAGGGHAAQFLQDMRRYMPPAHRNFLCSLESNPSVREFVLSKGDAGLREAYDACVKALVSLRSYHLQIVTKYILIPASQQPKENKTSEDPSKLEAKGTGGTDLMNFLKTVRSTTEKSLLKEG
row,Compound,EC50
1,"Cc1ccc(-c2cccn3c(-c4cccc(F)c4F)nnc23)cc1C(=O)Nc1ccc(F)cc1 [Example 20, 5-(3-(2,3-difluorophenyl)-[1,2,4]triazolo[4,3-a]pyridin-8-yl)-N-(4-fluorophenyl)-2-methylbenzamide]",192 nM
2,"O=C(Nc1ccc(F)cc1)c1cc(-c2cccn3c(-c4cccc(F)c4F)ncc23)cnc1C(F)(F)F [Example 47, 5-(3-(2,3-difluorophenyl)imidazo[1,5-a]pyridin-8-yl)-N-(4-fluorophenyl)-2-(trifluoromethyl)nicotinamide]",16 nM
3,O=C(Nc1ccc(F)cc1)c1nc(-c2cccn3c(-c4cccc(F)c4F)ncc23)ccc1Cl [Example 85],52 nM
4,"Cc1ncc(-c2cccn3c(-c4cccc(F)c4F)ncc23)cc1C(=O)Nc1ccc(F)cn1 [Example 60, 5-(3-(2,3-difluorophenyl)imidazo[1,5-a]pyridin-8-yl)-N-(5-fluoropyridin-2-yl)-2-methylnicotinamide]",21.1 nM
5,"O=C(Nc1ccc(F)cc1)c1cc(-c2cccn3c(-c4ccnc5ccccc45)ncc23)ccc1C(F)(F)F [Example 21, N-(4-fluorophenyl)-5-(3-(quinolin-4-yl)imidazo[1,5-a]pyridin-8-yl)-2-(trifluoromethyl)benzamide]",183 nM
6,"Fc1ccc2[nH]c(-c3cc(-c4cccn5c(-c6cccc(F)c6F)ncc45)ccc3Cl)nc2c1 [Example 96, 2-(2-chloro-5-(3-(2,3-difluorophenyl)imidazo[1,5-a]pyridin-8-yl)phenyl)-5-fluoro-1H-benzo[d]imidazole]",67.2 nM
7,"Cc1ncc(-c2ccnn3c(-c4cccc(F)c4F)nnc23)cc1C(=O)Nc1ccc(F)cc1 [Example 50, 5-(3-(2,3-difluorophenyl)-[1,2,4]triazolo[4,3-b]pyridazin-8-yl)-N-(4-fluorophenyl)-2-methylnicotinamide]",1890 nM
8,"Cc1ncc(-c2cccn3c(-c4cccc(F)c4F)ncc23)cc1C(=O)Nc1cccc(OC(F)(F)F)c1 [Example 72, 5-(3-(2,3-difluorophenyl)imidazo[1,5-a]pyridin-8-yl)-2-methyl-N-(3-(trifluoromethoxy)phenyl)nicotinamide]",380 nM
9,"O=C(Nc1ccc(F)cc1)c1cc(-c2cccn3c(-c4cccc(F)c4F)ncc23)cnc1C1CC1 [Example 82, 2-cyclopropyl-5-(3-(2,3-difluorophenyl)imidazo[1,5-a]pyridin-8-yl)-N-(4-fluorophenyl)nicotinamide]",17.5 nM
10,"Cc1ccc(-c2cccn3c(-c4cccnc4)nnc23)cc1C(=O)Nc1ccc(F)cc1 [Example 11, N-(4-fluorophenyl)-2-methyl-5-(3-(pyridin-3-yl)-[1,2,4]triazolo[4,3-a]pyridin-8-yl)benzamide]",683 nM
11,"Cc1ncc(-c2cccn3c(C4CCCCC4)ncc23)cc1C(=O)Nc1ccc(F)cc1 [Example 93, 5-(3-cyclohexylimidazo[1,5-a]pyridin-8-yl)-N-(4-fluorophenyl)-2-methylnicotinamide]",250 nM
12,"Cn1cnc(-c2ncc3c(-c4ccc(C(F)(F)F)c(C(=O)Nc5ccc(F)cc5)c4)cccn23)c1 [Example 13, N-(4-fluorophenyl)-5-(3-(1-methyl-1H-imidazol-4-yl)imidazo[1,5-a]pyridin-8-yl)-2-(trifluoromethyl)benzamide]",365 nM
13,"Cc1ncc(-c2cccn3c(-c4cccc(F)c4F)nc(Cl)c23)cc1C(=O)Nc1ccc(F)cc1 [Example 79, 5-(1-chloro-3-(2,3-difluorophenyl)imidazo[1,5-a]pyridin-8-yl)-N-(4-fluorophenyl)-2-methylnicotinamide]",118 nM
14,"Fc1ccc2[nH]c(-c3cc(-c4cccn5c(-c6cccc(F)c6F)ncc45)ccc3C(F)(F)F)nc2c1 [Example 95, 2-(5-(3-(2,3-difluorophenyl)imidazo[1,5-a]pyridin-8-yl)-2-(trifluoromethyl)phenyl)-5-fluoro-1H-benzo[d]imidazole]",24.3 nM
15,"Cc1ccc(-c2cccn3c(-c4ccccc4)nnc23)cc1C(=O)Nc1ccc(F)cc1 [Example 9, N-(4-fluorophenyl)-2-methyl-5-(3-phenyl-[1,2,4]triazolo[4,3-a]pyridin-8-yl)benzamide]",809 nM
16,"O=C(Nc1ccc(F)cc1)c1cc(-c2cccn3c(-c4cccc(F)c4F)ncc23)ccc1C(F)F [Example 41, 2-(difluoromethyl)-5-(3-(2,3-difluorophenyl)imidazo[1,5-a]pyridin-8-yl)-N-(4-fluorophenyl)benzamide]",19.8 nM
17,"NC(=O)c1ccnc(-c2ncc3c(-c4ccc(C(F)(F)F)c(C(=O)Nc5ccc(F)cc5)c4)cccn23)c1 [Example 6, 2-(8-(3-((4-fluorophenyl)carbamoyl)-4-(trifluoromethyl)phenyl)imidazo[1,5-a]pyridin-3-yl)isonicotinamide]",1330 nM
18,"N#Cc1ccnc(-c2ncc3c(-c4ccc(C(F)(F)F)c(C(=O)Nc5ccc(F)cc5)c4)cccn23)c1 [Example 10, 5-(3-(4-cyanopyridin-2-yl)imidazo[1,5-a]pyridin-8-yl)-N-(4-fluorophenyl)-2-(trifluoromethyl)benzamide]",712 nM
19,"Cc1ccc(-c2nccn3c(-c4ccccn4)ncc23)cc1C(=O)Nc1ccc(F)cc1 [Example 54, N-(4-fluorophenyl)-2-methyl-5-(3-(pyridin-2-yl)imidazo[1,5-a]pyrazin-8-yl)benzamide]",2630 nM
20,"Cc1ccc(-c2cccn3c(-c4ccccc4C(N)=O)nnc23)cc1C(=O)Nc1ccc(F)cc1 [Example 1, 5-(3-(2-carbamoylphenyl)-[1,2,4]triazolo[4,3-a]pyridin-8-yl)-N-(4-fluorophenyl)-2-methylbenzamide]",5340 nM
21,"O=C(Nc1ccc(F)cc1)c1nc(-c2cccn3c(-c4cccc(F)c4F)ncc23)ccc1C(F)(F)F [Example 38, 6-(3-(2,3-difluorophenyl)imidazo[1,5-a]pyridin-8-yl)-N-(4-fluorophenyl)-3-(trifluoromethyl)picolinamide]",23.8 nM

# Results, then the compound that gave them:
row,EC50,Compound
1,44.7 nM,"Cc1ccccc1-c1ncc2c(-c3cnc(C)c(C(=O)Nc4ccc(F)cc4)c3)cccn12 [Example 29, N-(4-fluorophenyl)-2-methyl-5-(3-(o-tolyl)imidazo[1,5-a]pyridin-8-yl)nicotinamide]"
2,57.6 nM,"Cc1ncc(-c2cccn3c(-c4cccc(F)c4F)ncc23)cc1C(=O)Nc1ccncc1 [Example 69, 5-(3-(2,3-difluorophenyl)imidazo[1,5-a]pyridin-8-yl)-2-methyl-N-(pyridin-4-yl)nicotinamide]"
3,39 nM,Cc1ncc(-c2cccn3c(-c4cc(F)ccc4F)ncc23)cc1C(=O)Nc1ccc(F)cc1 [Example 30]
4,15.3 nM,"Cc1ncc(-c2cccn3c(-c4cccc(F)c4F)ncc23)cc1C(=O)Nc1ccccc1 [Example 66, 5-(3-(2,3-difluorophenyl)imidazo[1,5-a]pyridin-8-yl)-2-methyl-N-phenylnicotinamide]"
5,112 nM,"Cc1ncc(-c2cccn3c(-c4cc(F)ccn4)ncc23)cc1C(=O)Nc1ccc(F)cc1 [Example 23, N-(4-fluorophenyl)-5-(3-(4-fluoropyridin-2-yl)imidazo[1,5-a]pyridin-8-yl)-2-methylnicotinamide]"
6,235 nM,"Cc1ncc(-c2cccn3c(-c4cccc(Cl)c4)ncc23)cc1C(=O)Nc1ccc(F)cc1 [Example 81, 5-(3-(3-chlorophenyl)imidazo[1,5-a]pyridin-8-yl)-N-(4-fluorophenyl)-2-methylnicotinamide]"
7,29.4 nM,"Cc1ccc(-c2cccn3c(-c4cccc(F)c4F)ncc23)cc1C(=O)Nc1ccc(F)cc1 [Example 34, 5-(3-(2,3-difluorophenyl)imidazo[1,5-a]pyridin-8-yl)-N-(4-fluorophenyl)-2-methylbenzamide]"
8,69 nM,"Cc1ncc(-c2cccn3c(-c4ncccn4)ncc23)cc1C(=O)Nc1ccc(F)cc1 [Example 25, N-(4-fluorophenyl)-2-methyl-5-(3-(pyrimidin-2-yl)imidazo[1,5-a]pyridin-8-yl)nicotinamide]"
9,38.3 nM,"O=C(Nc1ccc(F)cc1)c1cc(-c2cccn3c(-c4cccnc4)ncc23)ccc1C(F)(F)F [Example 31, N-(4-fluorophenyl)-5-(3-(pyridin-3-yl)imidazo[1,5-a]pyridin-8-yl)-2-(trifluoromethyl)benzamide]"
10,19.3 nM,"Cc1ncc(-c2cccn3c(-c4ccccc4Cl)ncc23)cc1C(=O)Nc1ccc(F)cc1 [Example 80, 5-(3-(2-chlorophenyl)imidazo[1,5-a]pyridin-8-yl)-N-(4-fluorophenyl)-2-methylnicotinamide]"
11,2380 nM,"Cc1cccc(-c2ncc3c(-c4ccc(C)c(C(=O)Nc5ccc(F)cc5)c4)nccn23)c1 [Example 53, N-(4-fluorophenyl)-2-methyl-5-(3-(m-tolyl)imidazo[1,5-a]pyrazin-8-yl)benzamide]"
